According to US20170008845A1, “PYRIDINYL CYCLOHEXANECARBOXAMIDE COOLING COMPOUNDS” (Givaudan, S.A., priority 2005, published 2017):
Read-outs that look alike come from different tables or passages of the source.

Tests used:
[1] = test system: panelists (cooling sensation in the mouth); test: Panel tasting of aqueous solutions: cooling intensity matched to menthol 2 ppm, and longevity; format: in vivo; details: for Longevity (time until no cooling could be sensed in the mouth): aqueous solution at the chosen concentration of Table 2; for Concentration with cooling intensity similar or slightly higher than menthol at 2 ppm: aqueous solution, tasted by a small panel
From the text: The same panel is asked to taste these solutions at the chosen concentrations and to record the cooling intensity at regular time intervals until no cooling could be sensed in the mouth.

[2] = test system: mouth and lips; details: 50 mL of 1% solution in alcohol per 1 liter mouthwash (with peppermint oil); 30 mL swished, gargled, spit out
Experimental: All the ingredients are mixed. 30 mL of obtained solution is put in the mouth, swished around, gargled and spit out.

[3] = test system: panelists (cooling sensation in the mouth); details: cooling intensity similar to or slightly higher than menthol at 2 ppm
[4] = test system: panelist's mouth; details: 1.5 mg in 355 mL can of clear lemon/lime soda
Experimental: 1.5 mg of the compound of example 2 is dissolved in a 355 mL (12 fl oz.) can of clear lemon/lime soda.

[5] = test system: panelist's mouth; details: 2.500 g of 2% solution in propylene glycol in 97 g opaque toothgel (with peppermint oil); teeth brushed, mouth rinsed
From the text: The chemicals are mixed in the toothgel, a piece of toothgel is put on a toothbrush and a panelist's teeth are brushed. The mouth is rinsed with water and the water is spit out.

Row | Compound | Longevity (time until no cooling could be sensed in the mouth) [1] [min] | Concentration with cooling intensity similar or slightly higher than menthol at 2 ppm [1] [ppm] | Cooling sensation in mouthwash [2] | Isointensive concentration [3] [ppm] | Isointensive concentration ([3]; listed as m = 0, 4) [ppm] | After-taste in beverage [4] | Cooling sensation in beverage [4] | Isointensive concentration ([3]; listed as m = 2, 2 or 6) [ppm] | Cooling sensation in toothgel [5]
1 | CC1CCC(C(C)C)C(C(=O)Nc2ccncc2)C1 (centres unmarked) [Example 1, N-(4-pyridinyl) p-menthanecarboxamide] | 50 | 0.5 | icy-cool sensation is felt in every area of the mouth as well as lips | 0.67 | 0.5 |  |  |  | 
2 | CC(C)[C@@H]1CC[C@@H](C)C[C@H]1O [l-Menthol, reference compound] | 35 | 2.0 |  |  |  |  |  |  | 
3 | CCNC(=O)C1CC(C)CCC1C(C)C (centres unmarked) [N-ethyl p-menthanecarboxamide (WS-3), N-ethyl p-menthanecarboxamide, reference compound] | 57 | 1.5 |  |  |  |  |  |  | 
4 | CC(C)[C@@H]1CC[C@@H](C)C[C@H]1C(=O)NCCc1ccccn1 [Example 2, (1R,2S,5R)-2-isopropyl-5-methyl-N-(2-(pyridin-2-yl)ethyl)cyclohexanecarboxamide] | 60 | 0.02 |  | 0.05 |  | No unpleasant after-taste | agreeable delayed cooling sensation in the mouth with no throat burning | 0.02 | intense cooling sensation is felt by the panelist in all areas of the mouth
5 | CC(C)C(C)(C(=O)NCCc1ccccn1)C(C)C [Example 3, 2-isopropyl-2,3-dimethyl-N-(2-(pyridin-2-yl)ethyl)butanamide] |  | 0.4 |  |  |  |  |  |  | 
